Experimental data published in PMC9502272, “A Metabolomics Approach for Predicting OATP1B-Type Transporter-Mediated Drug–Drug Interaction Liabilities” (Pharmaceutics, 2022).

Experiments:
[1] = biological target: T1, OATP1B-type transporters (Oatp1b2) (Mus musculus, UniProt Q9JJL3); assay: Murine pharmacokinetic study: influence of OATP1B inhibitors on plasma CDCA-24G in wild-type mice; type: in vivo; settings: rifampin 20 mg/kg i.v. or paclitaxel 10 mg/kg i.v.
T1 construct: was performed in wild-type mice and Oatp1b2(−/−) mice; from tissue; host or cells: living wild-type mice (DBA/1LacJ or FVB background); hepatic transporter in vivo
T1 sequence (Q9JJL3 1-689): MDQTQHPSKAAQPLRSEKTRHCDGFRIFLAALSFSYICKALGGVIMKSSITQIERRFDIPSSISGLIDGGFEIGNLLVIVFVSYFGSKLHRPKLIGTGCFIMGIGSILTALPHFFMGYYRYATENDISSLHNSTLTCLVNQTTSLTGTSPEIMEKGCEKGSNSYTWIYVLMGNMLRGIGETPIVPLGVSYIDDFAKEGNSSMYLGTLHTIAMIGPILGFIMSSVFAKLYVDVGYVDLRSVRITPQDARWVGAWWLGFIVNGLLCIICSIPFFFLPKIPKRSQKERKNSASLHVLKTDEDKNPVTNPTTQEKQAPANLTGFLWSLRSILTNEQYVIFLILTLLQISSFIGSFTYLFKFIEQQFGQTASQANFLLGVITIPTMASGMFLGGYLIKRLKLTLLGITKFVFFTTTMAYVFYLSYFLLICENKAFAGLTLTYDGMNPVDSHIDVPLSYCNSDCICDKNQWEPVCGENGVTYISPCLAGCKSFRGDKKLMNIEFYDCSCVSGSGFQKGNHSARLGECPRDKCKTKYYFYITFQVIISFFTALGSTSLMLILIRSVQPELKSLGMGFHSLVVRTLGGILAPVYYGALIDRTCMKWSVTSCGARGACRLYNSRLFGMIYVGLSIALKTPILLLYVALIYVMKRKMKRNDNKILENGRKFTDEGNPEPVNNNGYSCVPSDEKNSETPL
Procedure: In these experiments, serial whole blood samples were collected in heparinized tubes immediately prior to drug administration (pre-dose) and at 0.25, 0.5, 1, 2, and 4 h after administration from the submandibular vein for the initial three time-points, from the retro-orbital sinus vein for the subsequent two time-points, and by cardiac puncture at the terminal time-point. Whole blood samples were centrifuged at 11,000 rpm for 5 min; then, the plasma supernatants were collected and stored at −80 °C until analysis by a validated method based on LC-MS/MS.
An Accucore aQ column (50 × 2.1 mm, dp = 2.6 μm; Thermo Fisher Scientific) was protected by a C18 AQUASIL guard cartridge (2.1 mm × 10 mm, dp = 3 μm; Thermo Fisher Scientific). The injection volume of sample was 5.0 μL. The temperature of the autosampler rack was 4 °C, and the temperature of the column was maintained at 20 °C. The mobile phase was composed of solvent A (2 mmol ammonium acetate in water) and solvent B (100% methanol), and the total run time was 4.6 min. […]
(§1) Pharmacokinetic parameters were derived from non-compartmental analysis using Phoenix WinNonlin version 8.0 (Certara, Princeton, NJ, USA). The peak plasma concentration (Cmax) was determined by visual inspection of the data from the concentration–time curves. […]

OATP1B = settings: patients, paclitaxel (Taxol) 1 h i.v. infusion, 50 or 100 mg/m^2; dose-dependent
Procedure: An Accucore aQ column (50 × 2.1 mm, dp = 2.6 μm; Thermo Fisher Scientific) was protected by a C18 AQUASIL guard cartridge (2.1 mm × 10 mm, dp = 3 μm; Thermo Fisher Scientific). The injection volume of sample was 5.0 μL. The temperature of the autosampler rack was 4 °C, and the temperature of the column was maintained at 20 °C. The mobile phase was composed of solvent A (2 mmol ammonium acetate in water) and solvent B (100% methanol), and the total run time was 4.6 min. The gradient conditions were as follows: 0–0.5 min, 45% B; 0.5–2.0 min, 45 to 90%, 2.0–4.0 min, 90% B; 4.0–4.6 min, 45% B, delivered at a flow rate of 0.4 mL/min. The MS assay setting with the positive voltage applied to the ESI capillary was set at 3791 V, and the capillary temperatures was 335 °C with a vaporizer temperature of 350 °C. Argon was used as the collision gas at a pressure of 1.5 mTorr. […] The lower limit of quantitation (LLOQ) for both analytes was determined to be 0.5 ng/mL. […]
as §1

[2] = parameters: method as in ref PMIDs of Table S2 (18321482, 35456528, 28612269, 10997930, 27796539, 23299792, 11129729, 22808947, 12844327); settings: ref PMIDs of Table S2 (18321482, 35456528, 28612269, 10997930, 27796539, 23299792, 11129729, 22808947, 12844327); cited from earlier work
OATP1B3 = test system: OATP1B3; parameters: method as in ref PMIDs of Table S2 (18321482, 35456528, 28612269, 10997930, 11129729, 22808947, 12844327); settings: ref PMIDs of Table S2 (18321482, 35456528, 28612269, 10997930, 11129729, 22808947, 12844327); cited from earlier work
OATP1B1 = biological target: T2, OATP1B1 (Homo sapiens, UniProt Q9Y6L6); parameters: method as in ref PMIDs of Table S2 (18321482, 35456528, 28612269, 10997930, 11129729, 22808947, 12844327); settings: ref PMIDs of Table S2 (18321482, 35456528, 28612269, 10997930, 11129729, 22808947, 12844327); cited from earlier work
T2 construct: expressed in transfected cells; host or cells: HEK293 (ATCC)
T2 sequence (Q9Y6L6 1-691): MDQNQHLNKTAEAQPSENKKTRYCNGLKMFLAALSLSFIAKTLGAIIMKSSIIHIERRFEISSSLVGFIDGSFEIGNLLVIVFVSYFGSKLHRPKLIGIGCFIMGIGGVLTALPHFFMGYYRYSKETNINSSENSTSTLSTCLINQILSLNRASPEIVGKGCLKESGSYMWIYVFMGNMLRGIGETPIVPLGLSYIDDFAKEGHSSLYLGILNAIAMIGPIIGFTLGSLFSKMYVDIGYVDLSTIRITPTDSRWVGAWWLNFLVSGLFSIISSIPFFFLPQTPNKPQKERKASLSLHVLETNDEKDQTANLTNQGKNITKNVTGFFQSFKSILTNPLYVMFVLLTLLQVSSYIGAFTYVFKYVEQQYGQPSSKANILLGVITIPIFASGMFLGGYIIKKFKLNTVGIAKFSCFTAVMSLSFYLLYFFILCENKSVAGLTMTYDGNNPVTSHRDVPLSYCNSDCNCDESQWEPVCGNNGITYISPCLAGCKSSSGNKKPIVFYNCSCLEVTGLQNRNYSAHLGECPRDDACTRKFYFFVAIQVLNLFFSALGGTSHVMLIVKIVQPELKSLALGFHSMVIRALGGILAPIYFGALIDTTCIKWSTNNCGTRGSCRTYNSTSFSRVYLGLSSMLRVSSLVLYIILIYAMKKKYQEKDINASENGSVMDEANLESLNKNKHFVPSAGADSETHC

Effect on plasma levels of CDCA-24G (OATP1B)	SMILES	Effect on circulating levels of CDCA-24G [1]	Cmax [2]	IC50 (OATP1B3)	IC50 (OATP1B1)
elevated	CC(=O)O[C@H]1C(=O)[C@@]2(C)[C@H]([C@H](OC(=O)c3ccccc3)[C@]3(O)C[C@H](OC(=O)[C@H](O)[C@@H](NC(=O)c4ccccc4)c4ccccc4)C(C)=C1C3(C)C)[C@]1(OC(C)=O)CO[C@@H]1C[C@@H]2O [Paclitaxel, paclitaxel]	transient, statistically significant increase	9.6 µM	500 nM	
	CO[C@H]1/C=C/O[C@@]2(C)Oc3c(C)c(O)c4c(O)c(c(/C=N/N5CCN(C)CC5)c(O)c4c3C2=O)NC(=O)/C(C)=C\C=C\[C@H](C)[C@H](O)[C@@H](C)[C@@H](O)[C@@H](C)[C@H](OC(C)=O)[C@@H]1C [Rifampin, rifampin]	transient, statistically significant increase	29 µM	2600 nM	1500 nM
